Source: patent publication US10766888B1, “HMOX1 inducers” (Mitobridge Inc., priority 2019, dated 2020)
Converted amounts (≈) assume the structure as drawn.

Key:
[1] = tested on: Human Heme Oxygenase-1 (HMOX-1); experiment: ELISA assay to measure human heme oxygenase-1 (HMOX-1) in HepG2 lysate; type: cell-based; conditions: human HMOX1 protein level in HepG2 lysate; * = average of 2 or more EC50 determinations; NA = Not Active; read-out: EC50
In short: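 HO-1 protein levels were read as fold change over DMSO-treated cells, with EC50 derived from these values. Quantitation used a chemiluminescent streptavidin-HRP capture ELISA, calibrated with an HO-1 standard series starting at 20 ng/ml, run at 20 °C. Samples were HepG2 lysates made with Triton X100/EDTA buffer and diluted 1:20.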

Kinetic solubility = type: physicochemical; conditions: Dulbecco's phosphate buffer saline (DPBS), aqueous buffer, kinetic from dmso stock, DPBS pH 7.4, 25° C., 200 μM test compound
Protocol: Example 144. Kinetic Solubility
10 μL of 10 mM DMSO stock solution were aliquotted to 490 μL of DMSO solution and separately 490 μL of Dulbecco's phosphate buffer saline, DPBS, pH 7.4 solution in 1.2 mL 96-well plates in duplicate. Final concentration was 200 μM of the test compound. Samples were incubated at 25° C. with shaking at 200 rpm for 16 h. Samples were centrifuged at 3500 rpm for 20 min at 25° C., and supernatant was submitted for HPLC analysis.
Kinetic solubility was measured using the following equation: […]

Row | EC50 [1] [nM] | solubility at 16 h (Kinetic solubility) [µM] | SMILES
1 | 1300 | 0.3 (≈ 0.156 µg/mL) | COCCNC(=O)c1ccc2c(c1)nc(Nc1nc3ccc(OC(F)(F)F)cc3o1)n2CC1(O)COC1 [Example 94, 1-((3-hydroxyoxetan-3-yl)methyl)-N-(2-methoxyethyl)-2-((6-(trifluoromethoxy)benzo[d]oxazol-2-yl)amino)-1H-benzo[d]imidazole-5-carboxamide]
2 | 1400 | < 5 | Cn1c(Nc2nc3ccc(Cl)cc3o2)nc2cc(C(=O)NCCO)ccc21 [Example 97, 2-((6-chlorobenzo[d]oxazol-2-yl)amino)-N-(2-hydroxyethyl)-1-methyl-1H-benzo[d]imidazole-5-carboxamide]
3 | 920 | 0.4 (≈ 0.185 µg/mL) | COCCNC(=O)c1ccc2c(c1)nc(Nc1nc3ccc(OCC(F)(F)F)cc3o1)n2C [Example 99, N-(2-methoxyethyl)-1-methyl-2-((6-(2,2,2-trifluoroethoxy)benzo[d]oxazol-2-yl)amino)-1H-benzo[d]imidazole-5-carboxamide]
4 | 1200 | 5.3 (≈ 2.38 µg/mL) | Cn1c(Nc2nc3ccc(OCC(F)(F)F)cc3o2)nc2cc(C(=O)NCCO)ccc21 [Example 100, N-(2-hydroxyethyl)-1-methyl-2-((6-(2,2,2-trifluoroethoxy)benzo[d]oxazol-2-yl)amino)-1H-benzo[d]imidazole-5-carboxamide]
5 | 1300 | 5.3 (≈ 2.25 µg/mL) | COCCNC(=O)c1ccc2c(c1)nc(Nc1nc3ccc(OCCO)cc3o1)n2C [Example 102, 2-((6-(2-hydroxyethoxy)benzo[d]oxazol-2-yl)amino)-N-(2-methoxyethyl)-1-methyl-1H-benzo[d]imidazole-5-carboxamide]
6 | 3100 | > 20 | Cn1c(Nc2nc3ccc(OCCO)cc3o2)nc2cc(C(=O)NCCO)ccc21 [Example 103, 2-((6-(2-hydroxyethoxy)benzo[d]oxazol-2-yl)amino)-N-(2-hydroxyethyl)-1-methyl-1H-benzo[d]imidazole-5-carboxamide]
7 | 3700 | 6.6 (≈ 3.01 µg/mL) | Cn1c(Nc2nc3ccc(OCCO)cc3o2)nc2cc(C(=O)NCCOCCO)ccc21 [Example 104, 2-((6-(2-hydroxyethoxy)benzo[d]oxazol-2-yl)amino)-N-(2-(2-hydroxyethoxy)ethyl)-1-methyl-1H-benzo[d]imidazole-5-carboxamide]

Continued, compound first:

Row | SMILES | EC50 [1] [nM] | solubility at 16 h (Kinetic solubility) [µM]
8 | Cn1c(Nc2nc3ccc(OC(F)(F)F)cc3o2)nc2cc(C(=O)NC(CO)(CO)CO)ccc21 [Example 47, N-(1,3-dihydroxy-2-(hydroxymethyl)propan-2-yl)-1-methyl-2-((6-(trifluoromethoxy)benzo[d]oxazol-2-yl)amino)-1H-benzo[d]imidazole-5-carboxamide] | 1600 | < 2
9 | Cn1c(Nc2nc3ccc(OC(F)(F)F)cc3o2)nc2cc(C(=O)NC(CO)CO)ccc21 [Example 48, N-(1,3-dihydroxypropan-2-yl)-1-methyl-2-((6-(trifluoromethoxy)benzo[d]oxazol-2-yl)amino)-1H-benzo[d]imidazole-5-carboxamide] | 2000 | 3.9 (≈ 1.82 µg/mL)
10 | CN(C)CC(=O)NCCNC(=O)c1ccc2c(c1)nc(Nc1nc3ccc(OC(F)(F)F)cc3o1)n2C [Example 49, N-(2-(2-(dimethylamino)acetamido)ethyl)-1-methyl-2-((6-(trifluoromethoxy)benzo[d]oxazol-2-yl)amino)-1H-benzo[d]imidazole-5-carboxamide] | 800 | < 2
11 | Cn1c(Nc2nc3ccc(OC(F)(F)F)cc3o2)nc2cc(C(=O)NC3COC3)ccc21 [Example 51, 1-methyl-N-(oxetan-3-yl)-2-((6-(trifluoromethoxy)benzo[d]oxazol-2-yl)amino)-1H-benzo[d]imidazole-5-carboxamide] | 1400 | < 2
12 | Cn1c(Nc2nc3ccc(OC(F)(F)F)cc3o2)nc2cc(C(=O)NCC3(O)COC3)ccc21 [Example 52, N-((3-hydroxyoxetan-3-yl)methyl)-1-methyl-2-((6-(trifluoromethoxy)benzo[d]oxazol-2-yl)amino)-1H-benzo[d]imidazole-5-carboxamide] | 1000 | < 2
13 | COCCNC(=O)c1ccc2c(c1)nc(Nc1nc3ccc(C(C)C)cc3o1)n2C [Example 60, 2-((6-isopropylbenzo[d]oxazol-2-yl)amino)-N-(2-methoxyethyl)-1-methyl-1H-benzo[d]imidazole-5-carboxamide] | 700 | 0.9 (≈ 0.367 µg/mL)
14 | CC(C)c1ccc2nc(Nc3nc4cc(C(=O)NCCO)ccc4n3C)oc2c1 [Example 61, N-(2-hydroxyethyl)-2-((6-isopropylbenzo[d]oxazol-2-yl)amino)-1-methyl-1H-benzo[d]imidazole-5-carboxamide] | 1500 | 1.2 (≈ 0.472 µg/mL)
15 | COCCNC(=O)c1ccc2c(c1)nc(Nc1nc3ccc(OC(F)F)cc3o1)n2C [Example 63, 2-((6-(difluoromethoxy)benzo[d]oxazol-2-yl)amino)-N-(2-methoxyethyl)-1-methyl-1H-benzo[d]imidazole-5-carboxamide] | 1300 | 0.8 (≈ 0.345 µg/mL)
16 | Cn1c(Nc2nc3ccc(OC(F)F)cc3o2)nc2cc(C(=O)NCCO)ccc21 [Example 64, 2-((6-(difluoromethoxy)benzo[d]oxazol-2-yl)amino)-N-(2-hydroxyethyl)-1-methyl-1H-benzo[d]imidazole-5-carboxamide] | 1800 | 2 (≈ 0.835 µg/mL)
17 | COCCNC(=O)c1ccc2c(c1)nc(Nc1nc3cc(F)ccc3o1)n2C [Example 67, 2-((5-fluorobenzo[d]oxazol-2-yl)amino)-N-(2-methoxyethyl)-1-methyl-1H-benzo[d]imidazole-5-carboxamide] | 910 | < 5
18 | COCCNC(=O)c1cc2nc(Nc3nc4ccc(OC(F)(F)F)cc4o3)n(C)c2cc1F [Example 71, 6-fluoro-N-(2-methoxyethyl)-1-methyl-2-((6-(trifluoromethoxy)benzo[d]oxazol-2-yl)amino)-1H-benzo[d]imidazole-5-carboxamide] | 730 | 0.3 (≈ 0.14 µg/mL)
19 | Cn1c(Nc2nc3ccccc3o2)nc2cc(C(=O)NCCOCCO)c(F)cc21 [Example 72, 2-(benzo[d]oxazol-2-ylamino)-6-fluoro-N-(2-(2-hydroxyethoxy)ethyl)-1-methyl-1H-benzo[d]imidazole-5-carboxamide] | 1100 | 2.7 (≈ 1.12 µg/mL)
20 | O=C(O)c1ccc2c(c1)nc(Nc1nc3ccc(OC(F)(F)F)cc3o1)n2C1CCOCC1 [Example 79, 1-(tetrahydro-2H-pyran-4-yl)-2-((6-(trifluoromethoxy)benzo[d]oxazol-2-yl)amino)-1H-benzo[d]imidazole-5-carboxylic acid] | 4000 | 12.4 (≈ 5.73 µg/mL)
21 | Cn1c(Nc2nc3ccc(Br)cc3o2)nc2cc(C(=O)O)ccc21 [Example 91, 2-((6-bromobenzo[d]oxazol-2-yl)amino)-1-methyl-1H-benzo[d]imidazole-5-carboxylic acid] | 2500 | 2.6 (≈ 1.01 µg/mL)
22 | COc1ccc2nc(Nc3nc4cc(C(=O)NCCO)ccc4n3C)oc2c1 [Example 92, N-(2-hydroxyethyl)-2-((6-methoxybenzo[d]oxazol-2-yl)amino)-1-methyl-1H-benzo[d]imidazole-5-carboxamide] | 1400 | 3.5 (≈ 1.33 µg/mL)
